Our source for the Normal melting temperature values is the NIST ThermoML archive (doi:10.1016/j.jct.2016.07.035).

± gives the expanded uncertainty stated by the source.

The conditions of this series: Crystal; visual observation.

Consider `COC(=O)C1=C(C)NC(C)=C(C(=O)OC)C1c1ccccc1[N+](=O)[O-]`, for which the Normal melting temperature worked out at 173.50 ± 2.1 °C.
